This is an account of results in paper PMC8498988, “Scaffold Hybridization Strategy Leads to the Discovery of Dopamine D3 Receptor-Selective or Multitarget Bitopic Ligands Potentially Useful for Central Nervous System Disorders” (ACS Chemical Neuroscience, 2021).

The target in assay [1] is T1, D3R (Homo sapiens, UniProt P35462). The assay can be described thus: D3 mitogenesis functional assay (CHOp-D3 cells). It is filed as cell-based. Conditions: for EC50 / % stimul., D3 mitogenesis assay: agonist mode; for % stimul., D3 mitogenesis assay: standard agonist quinpirole; for IC50 / % inhibition (efficacy), D3R when tested as an antagonist: antagonist mode; for IC50: inhibition of quinpirole stimulation of mitogenesis, read-out: IC50, D3R when tested as an antagonist; for % inhibition (efficacy), D3R when tested as an antagonist: standard antagonist NGB 2904; for functional behavior at D3R: in words. Further details: expressed in transfected cells; host or cells: CHOp-D3 cells. The procedure: CHOp-D2 and CHOp-D3 cells are maintained in α-MEM with 10% fetal bovine serum (FBS, Atlas Biologicals), 0.05% pen-strep, and 400 μg/mL of G418. […] The cells are incubated at 37 °C in α-MEM with 10% FBS. After 48–72 h, the cells are rinsed twice with serum-free α-MEM and incubated for 24 h at 37 °C. Serial dilutions of test compounds are made by the Biomek robotics system in serum-free α-MEM. In the functional assay for agonists, the medium is removed and replaced with 100 μL of test compound in serum-free α-MEM. In the antagonist assay, the serial dilution of the putative antagonist test compound is added in 90 μL (1.1× of final concentration) and 300 nM quinpirole (30 nM final) is added in 10 μL. After another 24 h (D2) or 16 h (D3) incubation at 37 °C, 0.25 μCi of [^3H]thymidine in αMEM supplemented with 10% FBS is added to each well, and the plates are further incubated for 2 h at 37 °C. The cells are trypsinized by addition of 10× trypsin solution (1% trypsin in calcium–magnesium-free phosphate-buffered saline), and the plates are filtered and counted as usual. Quinpirole is run each day as an internal control, and dopamine is included for comparative purposes.
T1 sequence (P35462 whole entry): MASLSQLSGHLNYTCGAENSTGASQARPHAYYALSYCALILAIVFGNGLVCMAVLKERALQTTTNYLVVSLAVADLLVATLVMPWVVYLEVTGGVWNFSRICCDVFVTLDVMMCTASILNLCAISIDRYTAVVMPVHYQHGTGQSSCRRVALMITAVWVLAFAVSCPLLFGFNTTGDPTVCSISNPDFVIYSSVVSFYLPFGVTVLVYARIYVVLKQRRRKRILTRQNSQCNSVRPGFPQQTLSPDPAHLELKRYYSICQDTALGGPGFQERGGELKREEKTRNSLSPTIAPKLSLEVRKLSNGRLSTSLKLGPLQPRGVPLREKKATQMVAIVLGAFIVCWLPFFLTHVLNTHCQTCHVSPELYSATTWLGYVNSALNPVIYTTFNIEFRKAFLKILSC

Assay [2] has as its target T1, D3R. The assay is described as follows: Radioligand competition binding at human D3R ([3H]N-methylspiperone, HEK293 membranes). More on the design: expressed in transfected cells; host or cells: HEK293. Conditions: for Ki: [3H]N-methylspiperone, HEK 293 cells expressing hD3R, read-out: Ki ± SEM, D3R; for D2/D3: ratio of Ki values D2R/D3R; for D4/D3: ratio of Ki values D4R/D3R. On the procedure:
The novel hybrid derivatives 3–11 were tested at hD2R, hD3R, or hD4R stably expressed in HEK293 cells by competition binding assays, using [^3H]N-methylspiperone as the radioligand, to evaluate their D2-like affinity and subtype selectivity, following the previously reported procedures.[41],[45],[46]
Binding at dopamine D2-like receptors was determined using previously described methods.[41],[45],[46] Membranes were prepared from HEK293 cells stably expressing human D2, D3, or D4, grown in a 50:50 mix of Dulbecco’s minimal essential medium (DMEM) and Ham’s F12 culture media, supplemented with 20 mM HEPES, 2 mM L-glutamine, 0.1 mM nonessential amino acids, 1× antibiotic/antimycotic, 10% heat-inactivated fetal bovine serum, and 200 μg/mL hygromycin (Life Technologies, Grand Island, NY) and kept in an incubator at 37 °C and 5% CO2. Upon reaching 80–90% confluency, the cells were harvested using premixed Earle’s Balanced Salt Solution (EBSS) with 5 μM EDTA (Life Technologies) and centrifuged at 3000 rpm for 10 min at 21 °C. The supernatant was removed, and the pellet was resuspended in 10 mL hypotonic lysis buffer (5 mM MgCl2, 5 mM Tris, pH 7.4 at 4 °C) and centrifuged at 20,000 rpm for 30 min at 4 °C. The pellet was then resuspended in fresh EBSS buffer made from 8.7 g/L Earle’s Balanced Salts without phenol red (US Biological, Salem, MA), 2.2 g/L sodium bicarbonate, pH to 7.4. A Bradford protein assay (Bio-Rad, Hercules, CA) was used to determine the protein concentration, and membranes were diluted to 500 μg/mL and stored at −80 °C for later use. Radioligand competition binding experiments were conducted using thawed membranes. Test compounds were freshly dissolved in 30% DMSO and 70% H2O to a stock concentration of 100 μM. To assist the solubilization of free-base compounds, 10 μL of glacial acetic acid was added along with DMSO. Each test compound was then diluted into 13 half-log serial dilutions using 30% DMSO vehicle; the final test concentrations ranged from 10 μM to 10 pM. The previously frozen membranes were diluted in fresh EBSS to a 100 μg/mL (for D2 or D3) or 200 μg/mL (D4) stock for binding. Radioligand competition experiments were conducted in glass tubes containing 300 μL of fresh EBSS buffer, 50 μL of diluted test compound, 100 μL of membranes (10 μg of total protein for D2 or D3 and 20 μg of total protein for D4), and 50 μL of [^3H]N-methylspiperone (0.4 nM final concentration; PerkinElmer). Nonspecific binding was determined using 10 μM butaclamol (Sigma-Aldrich, St. Louis, MO), and total binding was determined with the 30% DMSO vehicle. All compound dilutions were tested in triplicate and the reaction was incubated for 1 h at room temperature. The reaction was terminated by filtration through Whatman GF/B filters, presoaked for 1 h in 0.5% polyethylenimine, using a Brandel R48 filtering manifold (Brandel Instruments, Gaithersburg, MD). The filters were washed three times with 3 mL of ice-cold EBSS buffer and transferred to scintillation vials. CytoScint liquid scintillation cocktail (3 mL, MP Biomedicals, Solon, OH) was added, and vials were counted using a PerkinElmer Tri-Carb 2910 TR liquid scintillation counter (Waltham, MA).

The target in another assay is T2, human D1R (Homo sapiens, UniProt P21728).
T2 construct: expressed in transfected cells; host or cells: mouse fibroblast cells (LhD1)
T2 sequence (P21728 whole entry): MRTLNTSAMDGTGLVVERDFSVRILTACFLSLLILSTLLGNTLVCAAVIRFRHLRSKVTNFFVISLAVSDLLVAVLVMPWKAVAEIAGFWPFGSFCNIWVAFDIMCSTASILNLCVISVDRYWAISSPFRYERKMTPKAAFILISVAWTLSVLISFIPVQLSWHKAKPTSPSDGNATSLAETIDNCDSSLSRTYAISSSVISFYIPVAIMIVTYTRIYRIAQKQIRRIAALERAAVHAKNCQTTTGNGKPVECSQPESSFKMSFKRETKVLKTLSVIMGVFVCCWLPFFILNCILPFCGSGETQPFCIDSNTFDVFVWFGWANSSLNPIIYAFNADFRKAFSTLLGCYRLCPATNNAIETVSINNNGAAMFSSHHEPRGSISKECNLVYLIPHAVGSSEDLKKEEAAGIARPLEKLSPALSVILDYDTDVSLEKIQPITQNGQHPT
The assay is described as follows: Radioligand binding assay at human D1R ([3H]SCH23390, mouse fibroblast LhD1 cells). Conditions: [3H]SCH23390, mouse fibroblast cells expressing hD1R; read-out: Ki ± SEM, D1R. The procedure: Mouse fibroblast cells expressing the human D1R at high density (LhD1 cells) are used. The cells are grown to confluence in DMEM containing 10% FetalClone1 serum (FCS, HyClone), 0.05% penicillin–streptomycin (pen-strep), and 400 μg/mL of Geneticin (G418). Three confluent 150 mm plates yield enough membranes for three assay plates with ∼10–15 μg protein per well. The cells from three 150 mm plates are scraped and centrifuged at 500×g for 5 min. The pellet is overlaid with 2 mL assay buffer (50 mM Tris–HCl containing 120 mM NaCl, 5 mM KCl, 2 mM CaCl2, and 1 mM MgCl2) and frozen at −70 °C. On the day of experiment, the pellet is homogenized in 30 mL assay buffer with a polytron. Cell homogenate (100 μL) is added to wells containing 800 μL of test drug or buffer. After a 10 min preincubation, 100 μL of [^3H]SCH-23390 (0.18 nM final concentration) is added. The plates are incubated at 25 C for 60 min. The reaction is terminated by filtration using a Tomtec 96 well harvester, and the radioactivity on the filters is determined using a PerkinElmer microbeta scintillation counter. Nonspecific binding is determined with 1 μM SCH-23390.

What is called EC50 is the concentration that produces a half-maximal response. Lower therefore signals higher potency in that assay. The term IC50 denotes the concentration that gives 50% inhibition. A word on the Ki: it is a measure of affinity in units of concentration, obtained from inhibition or displacement. As to `O=C(NCCCCN1CCN(c2cccc(Cl)c2Cl)CC1)C1COCC(c2ccccc2)(c2ccccc2)O1` (stereo not drawn) [compound 3, N-(4-(4-(2,3-Dichlorophenyl)piperazin-1-yl)butyl)-6,6-diphenyl-1,4-dioxane-2-carboxamide], on D3R [1], a half-maximal effect (EC50) was put at 9.8 ± 1.6 nM; the “% stimul., D3 mitogenesis assay” value is 36%; the IC50 came to 38 nM; the “% inhibition (efficacy), D3R when tested as an antagonist” value (shortened to “% inhibition (efficacy), D3R”) is 82.7%. The “functional behavior at D3R” value on D3R [1] is on record as “partial agonist”. At D3R [2], the Ki came out at 2.39 ± 0.69 nM, the D2/D3 came to 143 and the D4/D3 is 566. At human D1R, the Ki is 442 ± 52 nM.
Consider `O=C(NCCCCN1CCN(c2cccc(Cl)c2Cl)CC1)C1COC(c2ccccc2)(c2ccccc2)CO1` (stereo not drawn) [compound 6, N-(4-(4-(2,3-Dichlorophenyl)piperazin-1-yl)butyl)-5,5-diphenyl-1,4-dioxane-2-carboxamide], for which, at D3R [1], the EC50 came to 2.72 nM; the “% stimul., D3 mitogenesis assay” value was found to be 25.7%; the concentration for half-maximal inhibition (IC50) stood at 6.6 nM; the “% inhibition (efficacy), D3R” value came out at 64.0%. Moreover, the “functional behavior at D3R” value on D3R [1] was “D3R and 5-HT2CR partial agonists with high and low potency, respectively”. At D3R [2], the Ki is 1.58 ± 0.24 nM, the D2/D3 came out at 18 and the D4/D3 is 35. The Ki at human D1R came to 700 ± 150 nM.
Take `O=C(NCCCCN1CCN(c2cccc(Cl)c2Cl)CC1)C1COc2ccccc2O1` (stereo not drawn) [compound 9, N-(4-(4-(2,3-Dichlorophenyl)piperazin-1-yl)butyl)-2,3-dihydrobenzo[b][1,4]dioxine-2-carboxamide]: on D3R [1], the EC50 came out at 5 ± 1.7 nM; the “% stimul., D3 mitogenesis assay” value was found to be 34.0%; the IC50 came out at 40.4 nM; the “% inhibition (efficacy), D3R” value is 64.2%. In addition, the “functional behavior at D3R” value on D3R [1] is “D3R and 5-HT2CR partial agonists with high and low potency, respectively”. Moreover, at D3R [2], the Ki came to 2.16 ± 0.63 nM, the D2/D3 was determined as 22 and the D4/D3 amounted to 35. Moreover, the Ki on human D1R worked out at 680 ± 160 nM.
